This test deals with human primary T-cells, IL-2 stimulated proliferation (JAK-1 and JAK-3 dependent; reported as JAK3 activity). Kind of test: Human primary T-cell proliferation stimulated by IL-2 (Example 3). The note with it: tested under conditions described in Example 3 (IL-2 stimulated human primary T-cell proliferation), read-out: ability to inhibit JAK3 activity, IC50 range (Table V). It is filed as cell-based. Summed up: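 Peripheral-blood human T-cells pre-activated via TCR/CD28, IL-2-starved overnight, then cultured 72 h at 37 °C with compound in Yssel's medium containing IL-2 (80 U/mL in cell suspension). Proliferation read as viable-cell ATP by CellTiter-Glo luminescence; reduction versus control taken as JAK pathway inhibition.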

Here are results for 13 molecules from patent publication US10005767B2, “Compositions and methods for inhibition of the JAK pathway” (Rigel Pharmaceuticals, Inc., priority 2009, dated 2018).

Read-outs that look alike come from different tables or passages of the source. Where only a bound is given, the exact number is not on record here.

As to `Cc1cnc(Nc2ccc(Br)cc2)nc1Nc1ccc2oc(=O)[nH]c2c1` [Compound I-288, N2-(4-bromo)phenyl-5-methyl-N4-(2-oxo-2,3-dihydro-1,3-benzoxazol-5-yl)-2,4-pyrimidinediamine], the IC50 was under 500 nM.

With `COCCOc1cc(Nc2ncc(C)c(Nc3ccc4oc(=O)[nH]c4c3)n2)cc(C(F)(F)F)c1` [Compound I-384, N2-[3-(2-methoxy)ethoxy-5-trifluoromethyl]phenyl-5-methyl-N4-(2-oxo-2,3-dihydro-1,3-benzoxazol-5-yl)-2,4-pyrimidinediamine], the IC50 was under 500 nM.

For `CS(=O)(=O)c1cccc(Nc2ncc(F)c(Nc3ccc4oc(=O)[nH]c4c3)n2)c1` [Compound I-20], the IC50 was under 500 nM.

As for `Cc1cnc(Nc2cnc(N3CC4CC3CN4CC3CC3)c(F)c2)nc1Nc1ccc2oc(=O)[nH]c2c1` (stereo not shown) [II-54, 5-{2-[6-(5-Cyclopropylmethyl-2,5-diaza-bicyclo[2.2.1]hept-2-yl)-5-fluoro-pyridin-3-ylamino]-5-methyl-pyrimidin-4-ylamino}-3H-benzooxazol-2-one], for the setting “Homo sapiens, T-cell”, the IC50 is under 500 nM.

With `COc1cc(Nc2ncc(C)c(Nc3ccc4oc(=O)[nH]c4c3)n2)cc(C(=O)N(C)C)c1` [Compound I-252, 3-methoxy-N,N-dimethyl-5-(5-methyl-4-(2-oxo-2,3-dihydrobenzo[d]oxazol-5-ylamino)pyrimidin-2-ylamino)benzamide], the IC50 (Homo sapiens, T-cell) is under 500 nM. Take `Cc1cnc(Nc2cccc(C)c2F)nc1Nc1ccc2oc(=O)[nH]c2c1` [Compound I-513, 5-(2-(2-fluoro-3-methylphenylamino)-5-methylpyrimidin-4-ylamino)benzo[d]oxazol-2(3H)-one]: the IC50 (Homo sapiens, T-cell) was under 500 nM.

As for `Cc1cnc(Nc2ccc(N3C4CCC3CC(N(C)C)C4)nc2)nc1Nc1ccc2oc(=O)[nH]c2c1` (stereo not shown) [II-137, N2-[2-(3-N,N-dimethylamino-8-azabicyclo[3.2.1]octan-8-yl)pyridin-5-yl]-5-methyl-N4-(2-oxo-2,3-dihydro-1,3-benzoxazol-5-yl)-2,4-pyrimidinediamine], the IC50 was under 500 nM. As for `CCCn1c(=O)oc2ccc(Nc3nc(Nc4ccc(N5CCN(C)CC5)nc4)ncc3C)cc21` [II-4, N4-(3-n-propylbenzo[d]oxazol-2(3H)-on-5-yl)-N2-(6-(4-methylpiperazin-1-yl)pyridin-3-yl)-5-methylpyrimidine-2,4-diamine], the IC50 (Homo sapiens, T-cell) is under 500 nM. Consider `COc1cc(Nc2ncc(C)c(Nc3ccc4oc(=O)[nH]c4c3)n2)cc(C(=O)N2CCCC2)c1` [Compound I-253, 5-(2-(3-methoxy-5-(pyrrolidine-1-carbonyl)phenylamino)-5-methylpyrimidin-4-ylamino)benzo[d]oxazol-2(3H)-one], for which, under “Homo sapiens, T-cell”, the IC50 was over 10000 nM. Take `Cc1cnc(Nc2ccc(N3CCN(C)CC3)c(C(N)=O)c2)nc1Nc1ccc2oc(=O)[nH]c2c1` [Compound I-316, N2-[3-aminocarbonyl-4-(4-methylpiperazino)]phenyl-5-methyl-N4-(2-oxo-2,3-dihydro-1,3-benzoxazol-5-yl)-2,4-pyrimidinediamine]: the IC50 is under 500 nM. For `Cc1cnc(Nc2cccc(S(C)(=O)=O)c2)nc1Nc1ccc2oc(=O)n(COP(=O)(O)O)c2c1` [Compound I-33, N4-(3-phosphorylmethylbenzo[d]oxazol-2(3H)-on-5-yl)-N2-((3-methylsulfonyl)phenyl)-5-methylpyrimidine-2,4-diamine], the IC50 is under 500 nM. The same measure, in the same setting: with `COc1c(F)cc(Nc2ncc(C)c(Nc3ccc4oc(=O)[nH]c4c3)n2)cc1F` [Compound I-381, N2-(3,5-difluoro-4-methoxy)phenyl-5-methyl-N4-(2-oxo-2,3-dihydro-1,3-benzoxazol-5-yl)-2,4-pyrimidinediamine] the figure was under 500 nM.

As for `Cc1cnc(Nc2cc(C(C)NC3CC3)cc(C(F)(F)F)c2)nc1Nc1ccc2oc(=O)[nH]c2c1` (stereo not shown) [Compound I-461, 5-(2-(3-(1-(cyclopropylamino)ethyl)-5-(trifluoromethyl)phenylamino)-5-methylpyrimidin-4-ylamino)benzo[d]oxazol-2(3H)-one], under “Homo sapiens, T-cell”, the IC50 was under 500 nM.

In general, IC50 refers to the midpoint of a concentration-inhibition curve.
